Numbered stars: 1 amine (or outer) side, 2 acyl side, 3 side chain; on linkers, the order of the positions; unused ones are H or OH. Bridge positions count the residues as written; N and C are the ends. Square brackets hold non-standard residues; d marks the D form. Peptide text beside a SMILES is read from it. * marks the point of attachment. Orn(4R-OH,5R-OH) = O=C([C@H](C[C@@H](O)[C@@H](O)N[*:3])N[*:1])[*:2]; Pro(3S-OH,4S-Me) = C[C@H]1CN[C@H](C(=O)O)[C@H]1O; hTyr(3R-OH) = N[C@H](C(=O)O)[C@H](O)Cc1ccc(O)cc1; Hyp = O=C(O)[C@@H]1C[C@@H](O)CN1; X1 = CCC(C)CCCCCCCCCCC(=O)*
Tests used:
Microsporum canis = assay: Minimum inhibitory concentration; format: cell-based
Cladosporium species = assay: Minimum inhibitory concentration; format: cell-based
Cercospora beticola 71 = assay: Minimum inhibitory concentration; format: cell-based
Microsporum gypseum = assay: Minimum inhibitory concentration; format: cell-based
Botrytis cinerea 212 = assay: Minimum inhibitory concentration; format: cell-based
[1] = Solubility (physicochemical properties)
Source text: Physicochemical Properties of the New Antibiotic Deoxymulundocandin

[2] = tested on: Trichophyton mentagrophytes; assay: Minimum inhibitory concentration; format: cell-based
Botrytis cinerea 57 = assay: Minimum inhibitory concentration; format: cell-based
Botrytis cinerea 47 = assay: Minimum inhibitory concentration; format: cell-based
Penicillium italicum = assay: Minimum inhibitory concentration; format: cell-based
Candida albicans = assay: Minimum inhibitory concentration; format: cell-based
Botrytis cinerea 211 = assay: Minimum inhibitory concentration; format: cell-based
Saccharomycis cerevisiae = assay: Minimum inhibitory concentration; format: cell-based
Aspergillus niger = assay: Minimum inhibitory concentration; format: cell-based

Solubility ([1]; in methanol, dimethyl formamide, dimethyl sulfoxide): Soluble
Solubility ([1]; in water, acetone, acetonitrile, ethyl acetate, carbon tetrachloride, chloroform, benzene, petroleum ether): sparingly soluble
Compound: CCC(C)CCCCCCCCCCC(=O)N[C@H]1C[C@@H](O)[C@@H](O)NC(=O)[C@@H]2[C@@H](O)[C@@H](C)CN2C(=O)[C@H](CO)NC(=O)[C@H]([C@H](O)Cc2ccc(O)cc2)NC(=O)[C@@H]2C[C@@H](O)CN2C(=O)[C@H]([C@@H](C)O)NC1=O (stereo partly drawn) [Deoxymulundocandin] (X1-[Orn(4R-OH,5R-OH)]T[Hyp][hTyr(3R-OH)]S[Pro(3S-OH,4S-Me)]; lactam 1-C)
Minimum Inhibitory Concentration (Microsporum canis): < 0.18 micrograms per milliliter
Minimum Inhibitory Concentration (Cladosporium species): 0.75 micrograms per milliliter
Minimum Inhibitory Concentration (Cercospora beticola 71): 6.25 micrograms per milliliter
Minimum Inhibitory Concentration (Microsporum gypseum): 0.18 micrograms per milliliter
Minimum Inhibitory Concentration (Botrytis cinerea 212): 25 micrograms per milliliter
Minimum Inhibitory Concentration [2]: < 0.18 micrograms per milliliter
Minimum Inhibitory Concentration (Botrytis cinerea 57): 50 micrograms per milliliter
Minimum Inhibitory Concentration (Botrytis cinerea 47): 6.25 micrograms per milliliter
Minimum Inhibitory Concentration (Penicillium italicum): 25 micrograms per milliliter
Minimum Inhibitory Concentration (Candida albicans): 1.5 micrograms per milliliter
Minimum Inhibitory Concentration (Botrytis cinerea 211): 25 micrograms per milliliter
Minimum Inhibitory Concentration (Saccharomycis cerevisiae): 3.1 micrograms per milliliter
Minimum Inhibitory Concentration (Aspergillus niger): 3.1 micrograms per milliliter
